Experimental data taken from paper PMC11056991, “Promising Anticancer Prodrugs Based on Pt(IV) Complexes with Bis-organosilane Ligands in Axial Positions” (Journal of Medicinal Chemistry, 2024).
Like-named read-outs stand apart in the source and are kept apart here.

Assays:
[1] = tested on: histone gH2Ax foci at double-strand DNA breaks in HCT 116 cells; test: Immunofluorescence of histone gH2Ax DNA damage foci; assay type: cell-based, human; conditions: HCT 116, 0.5 μM, 48 h
Procedure: Confocal imaging of the DNA damage response was followed by immunofluorescence of histone gH2Ax foci at double-strand DNA breaks (DSB) (Figure 4A). […] However, none of the Pt(IV) prodrugs were able to increase p53 levels even at concentrations higher than those needed to reduce cell viability.
Cells in coverslips were washed three times and fixed with 4% paraformaldehyde in PBS (pH 7.4) for 10 min, washed again, permeabilized (PBS [pH7.4], 0.5% Triton X-100, 0.2% BSA) for 5 min, blocked (PBS [pH7,4], 0,05% Triton X-100, 5% BSA) for 1 h at room temperature, and incubated with primary antibody overnight at 4 °C. After three washes (5 min), cells were incubated with secondary antibody for 1 h at room temperature, and the nuclei were stained with 4,6-diamidino-2-phenylindole (DAPI, 1:10,000, Invitrogen) for 10 min. Slides were mounted, and images were acquired using an FV3000 confocal microscope (Olympus) with a 63× objective. The antibodies rabbit monoclonal anti-Histone H2A.X (D17A3) (dilution 1:400) and mouse monoclonal anti-Lamin A/C (4C11) (dilution 1:400) were purchased from Cell Signaling (Danvers, Massachusetts, USA). Donkey Anti-Rabbit-Alexa Fluor 488 (dilution 1:500) and Donkey Anti-Mouse-Alexa Fluor 594 (dilution 1:500) were purchased from Invitrogen (Barcelona, Spain).

[2] = In vivo toxicity and tolerance in tumor-bearing mice; design: species or system athymic nude Foxn1nu mice
Source text: The in vitro results encouraged us to explore the translational potential in a preclinical in vivo model of nude mice with grafted tumor cells. […] Tumor growth was monitored until tumors in the control group reached the ethically allowed size. […] On the other hand, many types of cancer cause a general increase in lactate dehydrogenase (LDH), and it is considered a nonspecific tumor marker.[57] Both treatments reduced LDH levels compared to those of untreated animals (PBS), reflecting the response to treatment.
To establish the subcutaneous tumor, 2 × 10^6 HCT 116 colon carcinoma cells were resuspended 1:1 in culture media and Matrigel (BD) and injected subcutaneously. Six to eight week old female athymic nude Foxn1nu mice (Harlan Iberica) were used for each point. […] Two therapeutic approaches were compared: acute and chronic (see diagram in Figure 5). Acute treatment was performed (three injections of 10 mg/kg); chronic treatment relied on injections of 1 mg/kg every 3–4 days. […] Tumor growth was monitored by personnel unaware of the group distribution. Experiments were finalized when control animals achieved the maximum tumor size approved by the Ethical Committee. Animals were sacrificed by euthanasia by CO2 inhalation. Selected organs were collected from each animal for histopathological analysis. Samples were fixed in 4% paraformaldehyde for 2 h followed by cold 70% ethanol. Plasma serum was collected to determine hepatic and renal toxicity of treatments using a SPIN200E automatic bioanalyzer (Spinreact).

HCT 116 cells = test: Trypan blue exclusion test; assay type: cell-based, human; conditions: HCT 116, 0.5 μM, 2 days
Procedure: HCT 116 cells were harvested by trypsinization followed by centrifugation at 500g for 5 min. The cell pellet was resuspended in 1 mL of PBS. Equal volumes of trypan blue (Bio-Rad cat. no. 1450021) 0.4% and cell suspension were mixed and incubated for 1–3 min at room temperature, and cell counting was carried out using a TC20 Automated Cell Counter (Bio-Rad cat. no. 1450102). The percentage of viable cells was calculated by dividing the number of viable cells per milliliter by the number total of cells per milliliter) × 100. Representative images were acquired using a Zeis light microscope with a 20× objective.

[3] = Stability in DMEM by 195Pt NMR; assay type: physicochemical; conditions: DMSO-d6/DMEM 1:4, 37 °C, 0, 24, 48, 120 h
Source text: We then decided to evaluate the stability of the two Pt(IV) complexes in the medium (DMEM) used to carry out the in vitro experiments, monitoring their kinetics by ^195Pt NMR at different times to evaluate the possible species formed over time. DMEM is supplemented with proteins and other molecules essential for cell growth (Experimental Section). Thus, similar to the reduction assays, we analyzed the Pt(II)/Pt(IV) region where the expected species appear. […] Both Pt(IV)/Pt(II) signals disappeared after 48 h, most likely again because of the binding of the complex to the proteins.
To each solution was then slowly and carefully added 300 μL of DMEM to avoid the precipitation of the complex, reaching a final concentration of 1:4 (DMSO-d6/DMEM). All these mixtures were performed using a thermoshaker. Each sample was monitored by ^195Pt NMR at 0, 24, 48, and 120 h.

[4] = 195Pt NMR reduction kinetics with ascorbic acid; assay type: physicochemical; conditions: AsA 4:1 excess, DMSO/D2O (4:1), 37 °C, 2, 6, 24 h
Procedure: AsA presents an intracellular concentration of 1 mM, whereas the GSH concentration is 2 mM.[38] This reactivity was monitored by ^195Pt NMR at different times. Thus, by analyzing the different regions where the signals of Pt(II)/Pt(IV) species appear, it is possible to identify and assign the different compounds formed during the reaction. In most cases, the regions where the Pt(II) and Pt(IV) signals appear are separated by more than 3000 ppm.[33]
We first studied the reduction of the complexes against AsA, monitoring the reaction in both the Pt(IV) and Pt(II) region at 2, 6, and 24 h. In both cases, we used a mixture of DMSO/D2O (4:1) to reach the solubilization of the complexes and the AsA. In the Pt(IV)-biSi-1 reduction experiment, during the first hour, only the signal at 1210 ppm appeared in the Pt(IV) region (Figure S13A), which corresponds to the original complex, and no signal was detected in the Pt(II) region.
Each solution was then slowly added to 100 μL of a solution of the corresponding reducing agent (AsA or GSH in an excess of 4:1 against each complex) in D2O at 37 °C. After that, 100 μL of DMSO-d6 was added carefully to each mixture, reaching a final concentration of […] (DMSO-d6/D2O). All of these mixtures were performed using a thermoshaker. Each sample was monitored by ^195Pt NMR at 2, 6, and 24 h.

[5] = tested on: HCT 116 human colon cancer cells; test: MTT cell viability assay, HCT 116; assay type: cell-based; conditions: for IC50: 48 h
Procedure: HIEC6 human healthy intestinal cells and HCT 116 and HT-29 human colon cancer cells were supplied by ATCC. Colon cancer cells were cultured in Dulbecco’s modified Eagle’s medium (DMEM) for HCT 116 and HT-29 supplemented with fetal bovine serum (10%). HIEC6 cells were cultured in Opti-MEM supplemented with fetal bovine serum (4%), HEPES (20 mM), glutamine (10 mM), and epidermal growth factor (10 ng/mL). Cells were maintained at 37 °C in a humidified atmosphere containing 5% CO2. Cells were seeded at 30% confluence in DMEM for HCT 116 and in Opti-MEM for HIEC6; after cell adhesion, HIEC6 cells were cultured in DMEM for 24h before being treated. All cells were treated with the indicated components at concentrations of 0.25–50 μM and incubated for 1–5 days as specified.
The MTT assay relies on a colorimetric reaction based on the capacity of living cells to reduce MTT to formazan and change the color to purple, which is easily measured by colorimetry. This assay estimates the cellular viability after the indicated treatments. Cells were treated with MTT (1:10 in culture medium) and incubated at 37 °C for 3 h for HCT 116 and HT-29 or 6 h for HIEC6. After removal of the medium, the formazan was resuspended in DMSO, transferred to p96 plates, and analyzed by a SpectraFLUOR (Tecan) at 542 nm. In all cases, viability was measured in duplicates of each point in three independent experiments.

[6] = mice after treatment, versus cisplatin

## CC(C)N.CC(C)N.CCO[Si](CCCNC(=O)[O][Pt]([Cl])([Cl])[O]C(=O)NCCC[Si](OCC)(OCC)OCC)(OCC)OCC [Pt(IV)-biSi-2, cis-Dichloro(diisopropylamine)-trans-[3-(triethoxysilyl)propylcarbamate]platinum(IV)]
[1]
  Unresolved DSB / histone H2Ax foci: foci were retained at 48 h
[2]; acute and chronic treatment
  Side effects (weight loss greater than 5% or abnormal postures) or deaths: No side effects (weight loss greater than 5% or abnormal postures) or deaths of the mice were observed
[2]; [6]
  Hepatic toxicity (uric acid and GPT levels in plasma): significantly lower
  Renal toxicity (creatinine levels in plasma): significantly lower
HCT 116 cells
  Reduction of viability by trypan blue staining: approximately 60%
[3]
  Stability in DMEM (Pt(IV) signal in 195Pt NMR): suffered a marked decrease after 24 h
[4]
  Reduction of the Pt(IV) complex by AsA (Pt(IV) signal in 195Pt NMR): no signals were observed in the Pt(IV) region after reaction for 2 h
[5]; 5 μM, 5 days chronic treatment
  Fold greater cytotoxicity than cisplatin, HCT 116: 8–10 fold
[5]; MTT, 0.5 uM, 2 days
  Cell viability, HCT 116 0.5uM 2 days: 49.4 ± 3.2%
[5]; MTT, 0.5 μM, 2 days
  Reduction of viability (cytotoxicity) of HCT 116 tumor cells: 50%
[5]; MTT, 0.5 uM, 5 days
  Cell viability, HCT 116 0.5uM 5 days: 60.2 ± 14.4%
[5]; MTT, 0.5 μM, 5 days
  Reduction of tumor cell viability (HCT 116): 40%
[5]; MTT, 5 μM, 2 days
  Reduction in viability of cancer cells (HCT 116): 90%
[5]; MTT, 5 uM, 2 days, (final complexes, Figure 3B)
  Cell viability, HCT 116 5uM 2 days: 4.4 ± 0.8%
[5]; MTT, 5 μM, 5 days chronic treatment
  Cells survived, HCT 116: 5%
[5]; MTT, Figure 3C and text, read-out: IC50 (μM), HCT 116
  IC50: 0.94 µM
[5]; MTT, supplementary CSV, read-out: IC50 (uM) HCT 116
  IC50: 0.9 ± 0.6 µM
[5]; MTT, 2 days
  Cell viability, HCT 116 […] 2 days: 59.6 ± 2.9%
[5]; MTT, second (last) column of this head
  Cell viability, HCT 116 […] 2 days: 59.1 ± 0.8%
